Assay results as given in patent US11612601B1, “Targeting epidermal growth factor to treat vascular calcification” (THE FLORIDA INTERNATIONAL UNIVERSITY BOARD OF TRUSTEES, priority 2022, dated 2023).

Columns and labels:
[1] = tested on: Primary human coronary artery vascular smooth muscle cells; assay: In vitro calcification of VSMCs, Alizarin Red S staining; assay type: cell-based; conditions: OS media, 2.5 μM, 28 days
Description: Primary human coronary artery vascular smooth muscle cells, (VSMCs, ATCC, PCS-100-021) were cultured using vascular smooth muscle cell media and growth kit (ATCC, PCS-100-042). VSMCs (passage 4-6) were harvested using 0.05% trypsin-EDTA solution (Caisson Labs, TRL04) and seeded with a density of 26,320 cells.cm^−2 and incubated for 72 hours at 37° C., 5% CO2 with controlled humidity prior to treatment. VSMCs were treated with either control media, consisting of DMEM (HyClone, SH30022.01), 10% v/v bovine calf serum (iron-supplemented, R&D Systems, S11950), and 1% v/v penicillin-streptomycin (Gibco, 15070-063), or with an osteogenic media (OS) optimized to induce calcification. OS media were supplemented with 10 mM β-glycerophosphate (Sigma, 13408-09-8), 0.1 mM L-ascorbic acid (Sigma, 113170-55-1), and 10 nM dexamethasone (Sigma, 50-02-2).
To assess the role of EGFR inhibition, tyrphostin AG1478 (Millipore Sigma, T4182) was dissolved in vehicle (DMSO:Methanol, 1:1) and added to OS media to a final concentration of 2.5 μM. An equal volume of vehicle was added to the control and OS groups. […]
To quantify the in vitro calcification, ARS stain was extracted using acetic acid (1.67 M, Fisher Chemical, A38S) on a shaker. […] Sample absorbance of 405 nm was measured using a multi-mode reader (BioTek, Synergy HTX).

CKD mice [2] = assay: Serum EGFR level and serum TNAP activity in CKD mice; assay type: in vivo, mouse; conditions: 10 mg/kg daily, vs CKD
Description: Along with this calcifying diet, a group of mice (n=19) received daily tyrphostin AG1478 (10 mg/kg mouse, Millipore Sigma, T4182) via oral gavage. The remaining mice (n=19) received vehicle treatment (1% w/v, carboxymethylcellulose sodium salt, Sigma, C5678). For non-diseased controls, a third group of mice (n=12, 6 per biological sex) were fed a regular chow diet and received the vehicle for the final two weeks. During the oral gavage, animals were partially anesthetized using isoflurane (1%, Patterson Veterinary, 07-893-1389, in 2 L.min^−1 oxygen flow). […] At study endpoint, mice were anesthetized with isoflurane (1%, in 2 L.min^−1 oxygen flow) followed by retro-orbital bleeding for blood collection. Mice were then immediately euthanized by laceration of the diaphragm before tissue collection. […] For mice serum TNAP activity, the samples were diluted 1:20 and assessment was performed according to the manufacturer's protocol.

CKD mice [3] = assay: Femur X-ray CT bone thickness and bone volume fraction in CKD mice; assay type: in vivo, mouse
Description: Femurs were dissected from mice, wrapped in parafilm and imaged directly in a Nikon XT H 225 scanner (macro-CT, Nikon Metrology, Tring, UK). The raw transmission images were reconstructed using commercial image reconstruction software package (CT Pro 3D, Nikon Metrology, Tring, UK), which employs a filtered back-projection algorithm. The scan was performed using 80 kV beam energy, 70 μA beam current, and a power of 5.6 W. A PerkinElmer 1620 flat panel detector was used, with 200 μm pixel size. The resulting effective pixel size was 5 μm. The exposure time per projection was 0.5 s, and a total of 1601 projections were acquired, resulting in a scanning time of approximately 13 minutes per sample. Bone structural parameters, including thickness and volume fraction (the ratio of bone volume (BV) to total volume (TV)), for both cortical and trabecular regions were assessed using a plug-in module, BoneJ, in ImageJ (NIH, USA).

COc1cc2ncnc(Nc3cccc(Cl)c3)c2cc1OC [AG1478, tyrphostin AG1478]
in vitro calcification of VSMCs (ARS staining) [1]: abrogated
serum TNAP activity (CKD mice [2]; p=0.06): did not significantly reduce
level of serum EGFR (CKD mice [2]; p=0.78): no significant difference
thickness of cortical bone (CKD mice [3]; CKD mice treated vs CKD, p=0.004): increased
thickness of trabecular bone, metaphysical region (CKD mice [3]; CKD mice treated vs CKD, p=0.02): increased
thickness of trabecular bone, epiphyseal region (CKD mice [3]; CKD mice treated vs CKD, p=0.04): increased
bone volume fraction in trabecular bone, metaphysical region (CKD mice [3]; compared to CKD animals, p=0.002): increased
bone volume fraction in trabecular bone, epiphyseal region (CKD mice [3]; compared to CKD animals, p=0.009): increased
bone volume fraction in cortical bone (CKD mice [3]; compared to CKD animals, p=0.25): did not significantly change
